# Counter-ions that a name gives are not always drawn.
# What was measured:
# [1] = molecular target: pEGFR (Tyr1068) in PC-9 cells (Ex19Del) (Homo sapiens (Human), UniProt P00533, DEL746-750); test: PC-9 pEGFR AlphaLISA assay; format: cell-based; conditions: 4 hours incubation, p-EGFR (Tyr1068) AlphaLISA, read-out: Ext pEGFR_PC-9 Ex19Del IC50
# Procedure, shortened: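 Cells seeded in phenol-free DMEM with 10% FBS adhered overnight at 37° C./5% CO2, then were exposed for 4 hours to a 4-fold, 10-point compound dilution series. After lysis, phospho-EGFR was read by AlphaLISA SureFire Ultra, and IC50 was fitted from percent inhibition versus log concentration.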
# [2] = molecular target: EGFR (d746-750) (Homo sapiens (Human), UniProt P00533, DEL746-750); test: Biochemical EGFR inhibition assay, EGFR (d746-750); conditions: Caliper mobility shift; 1.0 mM ATP or ATP Km; read-out: Enz EGFR_Exon19-del746-750 IC50
# [3] = molecular target: EGFR L858R (Homo sapiens (Human), UniProt P00533, L858R); test: Biochemical EGFR inhibition assay, EGFR L858R; conditions: Caliper mobility shift; 1.0 mM ATP or ATP Km; read-out: Enz EGFR_L858R IC50
# EGFR L858R, sequence (P00533 25-1210 L858R): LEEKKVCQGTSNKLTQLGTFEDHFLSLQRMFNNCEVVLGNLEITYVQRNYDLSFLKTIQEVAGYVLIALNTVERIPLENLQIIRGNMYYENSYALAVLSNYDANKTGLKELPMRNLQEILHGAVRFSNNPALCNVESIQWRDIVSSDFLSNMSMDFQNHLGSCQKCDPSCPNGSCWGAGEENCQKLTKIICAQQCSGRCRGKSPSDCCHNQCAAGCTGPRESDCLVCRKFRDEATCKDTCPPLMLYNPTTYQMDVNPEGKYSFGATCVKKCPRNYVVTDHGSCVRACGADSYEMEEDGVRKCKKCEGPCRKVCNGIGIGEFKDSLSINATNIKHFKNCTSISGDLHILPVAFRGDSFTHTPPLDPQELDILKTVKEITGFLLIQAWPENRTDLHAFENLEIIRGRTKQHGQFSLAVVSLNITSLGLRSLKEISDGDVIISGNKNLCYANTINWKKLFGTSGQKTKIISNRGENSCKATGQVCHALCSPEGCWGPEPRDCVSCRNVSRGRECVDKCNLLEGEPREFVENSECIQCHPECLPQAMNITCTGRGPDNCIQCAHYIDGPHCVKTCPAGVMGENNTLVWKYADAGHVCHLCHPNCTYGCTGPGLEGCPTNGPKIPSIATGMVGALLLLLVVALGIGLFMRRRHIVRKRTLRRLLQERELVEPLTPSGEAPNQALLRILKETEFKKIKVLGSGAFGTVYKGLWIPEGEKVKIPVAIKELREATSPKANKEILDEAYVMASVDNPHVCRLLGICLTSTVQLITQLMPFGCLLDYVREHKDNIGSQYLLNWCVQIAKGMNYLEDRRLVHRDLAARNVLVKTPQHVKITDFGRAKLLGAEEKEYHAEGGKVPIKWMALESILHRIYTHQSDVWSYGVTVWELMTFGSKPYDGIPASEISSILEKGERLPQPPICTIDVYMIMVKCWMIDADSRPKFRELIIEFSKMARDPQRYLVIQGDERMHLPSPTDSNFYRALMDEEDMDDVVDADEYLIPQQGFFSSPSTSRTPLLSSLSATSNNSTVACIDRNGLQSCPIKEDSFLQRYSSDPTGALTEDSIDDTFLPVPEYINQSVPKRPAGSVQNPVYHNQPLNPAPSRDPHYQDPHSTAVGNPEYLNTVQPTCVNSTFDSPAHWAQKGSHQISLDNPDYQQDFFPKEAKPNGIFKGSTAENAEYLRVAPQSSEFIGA
# EGFR (d746-750), sequence (P00533 other isoform, or with tags, fused parts or gaps del 1-694/del 746-750 limits assumed): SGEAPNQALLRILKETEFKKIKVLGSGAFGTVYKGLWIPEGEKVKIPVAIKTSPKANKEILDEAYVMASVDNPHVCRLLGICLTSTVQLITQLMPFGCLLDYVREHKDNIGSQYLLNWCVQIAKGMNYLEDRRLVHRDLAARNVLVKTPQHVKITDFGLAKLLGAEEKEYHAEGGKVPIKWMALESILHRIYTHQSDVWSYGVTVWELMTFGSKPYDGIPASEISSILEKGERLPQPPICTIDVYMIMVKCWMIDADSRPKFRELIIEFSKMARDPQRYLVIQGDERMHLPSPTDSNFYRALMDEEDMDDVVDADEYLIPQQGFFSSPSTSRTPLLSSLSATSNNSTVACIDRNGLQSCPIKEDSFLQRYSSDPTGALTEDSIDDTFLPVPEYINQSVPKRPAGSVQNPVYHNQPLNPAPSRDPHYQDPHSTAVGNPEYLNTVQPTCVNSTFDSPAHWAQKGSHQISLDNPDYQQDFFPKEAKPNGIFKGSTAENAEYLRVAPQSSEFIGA
# pEGFR (Tyr1068) in PC-9 cells (Ex19Del), sequence (P00533 other isoform, or with tags, fused parts or gaps del 746-750): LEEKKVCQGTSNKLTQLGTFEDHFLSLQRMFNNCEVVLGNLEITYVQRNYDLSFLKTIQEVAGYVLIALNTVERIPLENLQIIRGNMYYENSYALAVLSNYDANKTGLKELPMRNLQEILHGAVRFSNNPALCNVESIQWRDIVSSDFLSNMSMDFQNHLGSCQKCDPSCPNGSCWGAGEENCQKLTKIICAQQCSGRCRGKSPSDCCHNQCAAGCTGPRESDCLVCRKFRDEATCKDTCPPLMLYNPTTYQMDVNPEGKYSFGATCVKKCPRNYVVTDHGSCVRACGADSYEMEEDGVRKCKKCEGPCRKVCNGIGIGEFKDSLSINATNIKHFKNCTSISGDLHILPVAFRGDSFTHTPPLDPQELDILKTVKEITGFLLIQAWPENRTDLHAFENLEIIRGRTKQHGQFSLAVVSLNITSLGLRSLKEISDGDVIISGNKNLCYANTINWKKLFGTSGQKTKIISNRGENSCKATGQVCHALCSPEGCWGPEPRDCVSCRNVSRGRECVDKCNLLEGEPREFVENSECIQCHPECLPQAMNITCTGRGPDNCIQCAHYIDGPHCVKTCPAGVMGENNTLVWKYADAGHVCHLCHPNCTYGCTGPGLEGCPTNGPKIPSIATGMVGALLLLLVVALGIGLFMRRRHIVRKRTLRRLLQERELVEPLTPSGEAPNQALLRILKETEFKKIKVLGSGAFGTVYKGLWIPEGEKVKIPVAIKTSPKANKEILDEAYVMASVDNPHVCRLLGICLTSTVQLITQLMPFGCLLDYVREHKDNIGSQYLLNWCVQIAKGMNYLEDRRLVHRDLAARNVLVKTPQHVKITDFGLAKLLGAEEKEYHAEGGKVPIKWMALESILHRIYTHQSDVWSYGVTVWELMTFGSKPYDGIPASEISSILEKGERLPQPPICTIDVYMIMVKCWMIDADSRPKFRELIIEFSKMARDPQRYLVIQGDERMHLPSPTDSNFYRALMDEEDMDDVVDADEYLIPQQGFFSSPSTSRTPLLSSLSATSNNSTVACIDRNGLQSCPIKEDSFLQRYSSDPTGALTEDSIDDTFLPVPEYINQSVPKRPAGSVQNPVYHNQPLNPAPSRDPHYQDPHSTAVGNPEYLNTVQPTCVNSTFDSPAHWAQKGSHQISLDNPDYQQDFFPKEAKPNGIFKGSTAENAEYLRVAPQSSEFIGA
IC50 [1],IC50 [2],IC50 [3],SMILES
2.7 nM,1 nM,1.8 nM,"COc1cc2ncnc(-c3cn(C)nc3-c3ccccc3)c2nc1NC(=O)c1cnn(C(F)(F)F)c1 [Example 360, N-(7-methoxy-4-(1-methyl-3-phenyl-1H-pyrazol-4-yl)pyrido[3,2-d]pyrimidin-6-yl)-1-(trifluoromethyl)-1H-pyrazole-4-carboxamide]"
3.5 nM,0.8 nM,4.9 nM,"Cn1cc(-c2ncnc3cc(OC(F)F)c(NC(=O)C4(C(F)(F)F)CC4)nc23)c(-c2ccccc2)n1 [Example 465, N-(7-(difluoromethoxy)-4-(1-methyl-3-phenyl-1H-pyrazol-4-yl)pyrido[3,2-d]pyrimidin-6-yl)-1-(trifluoromethyl)cyclopropane-1-carboxamide]"
0.8 nM,1 nM,1.6 nM,"COc1cc2ncnc(-c3cn(C)nc3-c3ccccc3)c2cc1NC(=O)C1CC1 [Example 344, N-(7-methoxy-4-(1-methyl-3-phenyl-1H-pyrazol-4-yl)quinazolin-6-yl)cyclopropanecarboxamide]"
23.8 nM,4.5 nM,26 nM,"Cn1cc(-c2ncnc3cc(OC(F)F)c(NC(=O)c4ccc(C5CC5)nc4)nc23)c(-c2ccccc2)n1 [Example 470, 6-cyclopropyl-N-[7-(difluoromethoxy)-4-(1-methyl-3-phenyl-1H-pyrazol-4-yl)pyrido[3,2-d]pyrimidin-6-yl]pyridine-3-carboxamide]"
8.3 nM,3 nM,6.4 nM,"COc1cc2ncnc(-c3cn(C)nc3-c3ccccc3)c2cc1NC(=O)C12CC(N(C)C)(C1)C2 [Example 341, 3-(dimethylamino)-N-(7-methoxy-4-(1-methyl-3-phenyl-1H-pyrazol-4-yl)quinazolin-6-yl)bicyclo[1.1.1]pentane-1-carboxamide trifluoroacetate]"
0.7 nM,0.5 nM,1.1 nM,"COc1cc2ncnc(-c3cn(C)nc3-c3ccc(F)cc3)c2nc1NC(=O)C1(C(F)(F)F)CC1 [Example 362, N-(4-(3-(4-fluorophenyl)-1-methyl-1H-pyrazol-4-yl)-7-methoxypyrido[3,2-d]pyrimidin-6-yl)-1-(trifluoromethyl)cyclopropane-1-carboxamide]"
1.5 nM,1.2 nM,2.3 nM,"COc1cc2ncnc(-c3cn(C)nc3-c3ccc(F)cc3F)c2nc1NC(=O)[C@]12C[C@H]1CN(C)C2 (single isomer, unassigned) [Example 424, (1R,5R)—N-(4-(3-(2,4-difluorophenyl)-1-methyl-1H-pyrazol-4-yl)-7-methoxypyrido[3,2-d]pyrimidin-6-yl)-3-methyl-3-azabicyclo[3.1.0]hexane-1-carboxamide or (1S,5S)—N-(4-(3-(2,4-difluorophenyl)-1-methyl-1H-pyrazol-4-yl)-7-methoxypyrido[3,2-d]pyrimidin-6-yl)-3-methyl-3-azabicyclo[3.1.0]hexane-1-carboxamide]"
16 nM,3.7 nM,19 nM,"COc1cc2ncnc(-c3cn(C)nc3-c3ccccc3)c2nc1NC(=O)[C@]1(C(F)(F)F)CCCN1C (single isomer, unassigned) [Example 430, (S)—N-(7-methoxy-4-(1-methyl-3-phenyl-1H-pyrazol-4-yl)pyrido[3,2-d]pyrimidin-6-yl)-1-methyl-2-(trifluoromethyl) pyrrolidine-2-carboxamide or (R)—N-(7-methoxy-4-(1-methyl-3-phenyl-1H-pyrazol-4-yl)pyrido[3,2-d]pyrimidin-6-yl)-1-methyl-2-(trifluoromethyl) pyrrolidine-2-carboxamide]"
0.4 nM,1.1 nM,1.4 nM,"CN1CCC(n2cc(-c3ccc4c(-c5c[nH]nc5-c5ccccc5)ncnc4c3)cn2)CC1 [Example 442, 7-(1-(1-methylpiperidin-4-yl)-1H-pyrazol-4-yl)-4-(3-phenyl-1H-pyrazol-4-yl)quinazoline]"
38.6 nM,1.8 nM,1.4 nM,Cn1cc(-c2ccc3c(-c4cnn(C)c4-c4ccccc4)ncnc3c2)cn1 [Example 497]
3.6 nM,2.8 nM,10.5 nM,"Cc1nnc([C@@H](C)Oc2nc3c(-c4cn(C)nc4-c4ccccc4)ncnc3cc2OC2CC2)o1 (single isomer, unassigned) [Example 478, 2-[(1S)-1-{[7-cyclopropoxy-4-(1-methyl-3-phenyl-1H-pyrazol-4-yl)pyrido[3,2-d]pyrimidin-6-yl]oxy}ethyl]-5-methyl-1,3,4-oxadiazole or 2-[(1R)-1-{[7-cyclopropoxy-4-(1-methyl-3-phenyl-1H-pyrazol-4-yl)pyrido[3,2-d]pyrimidin-6-yl]oxy}ethyl]-5-methyl-1,3,4-oxadiazole]"

# Second part, the compound before the results:
SMILES,IC50 [1],IC50 [2],IC50 [3]
"COc1cc2ncnc(-c3cn(C)nc3-c3ccccc3)c2cc1OC(=O)N1CCOCC1(C)C [Example 81, 7-methoxy-4-(1-methyl-3-phenyl-1H-pyrazol-4-yl)quinazolin-6-yl 3,3-dimethylmorpholine-4-carboxylate]",5.2 nM,2.2 nM,6.1 nM
"CCn1cc(-c2ncnc3cc(OC)c([C@@H](C)O)cc23)c(-c2ccccc2)n1 (single isomer, unassigned) [Example 106, (R)-1-(4-(1-ethyl-3-phenyl-1H-pyrazol-4-yl)-7-methoxyquinazolin-6-yl)ethan-1-ol or (S)-1-(4-(1-ethyl-3-phenyl-1H-pyrazol-4-yl)-7-methoxyquinazolin-6-yl)ethan-1-ol]",10.9 nM,1.8 nM,3.4 nM
"COc1cc2ncnc(-c3cn(C)nc3-c3ccccc3)c2cc1NC(=O)c1cnn2c1CCCC2 [Example 226, N-(7-methoxy-4-(1-methyl-3-phenyl-1H-pyrazol-4-yl)quinazolin-6-yl)-4,5,6,7-tetrahydropyrazolo[1,5-a]pyridine-3-carboxamide]",1.4 nM,1 nM,1.6 nM
"COc1cc2ncnc(-c3cn(C)nc3-c3ccccc3)c2cc1NC(=O)c1cnn(C(F)(F)F)c1 [Example 187, N-(7-methoxy-4-(1-methyl-3-phenyl-1H-pyrazol-4-yl)quinazolin-6-yl)-1-(trifluoromethyl)-1H-pyrazole-4-carboxamide]",4 nM,1.5 nM,2.6 nM
"CCOc1cc2ncnc(-c3cn(C)nc3-c3ccccc3)c2cc1OC1CCN(C(=O)CC)CC1 [Example 10, 1-(4-((7-ethoxy-4-(1-methyl-3-phenyl-1H-pyrazol-4-yl)quinazolin-6-yl)oxy)piperidin-1-yl) propan-1-one]",2.8 nM,1.9 nM,3.5 nM
"CCn1cc(-c2ncnc3cc(OC)c(NC(=O)C45CC(C4)C5)nc23)c(-c2ccccc2)n1 [Example 315, N-(4-(1-ethyl-3-phenyl-1H-pyrazol-4-yl)-7-methoxypyrido[3,2-d]pyrimidin-6-yl)bicyclo[1.1.1]pentane-1-carboxamide]",0.6 nM,1.1 nM,1.7 nM
"CCC(=O)Nc1cc2c(-c3cn(CC(F)F)nc3-c3ccccc3)ncnc2cc1OC [Example 250, N-(4-(1-(2,2-difluoroethyl)-3-phenyl-1H-pyrazol-4-yl)-7-methoxyquinazolin-6-yl)propionamide]",0.9 nM,1 nM,1.4 nM
"COc1cc2ncnc(-c3cn(CCO)nc3-c3ccccc3)c2cc1NC(=O)C12CC(C1)C2 [Example 265, N-(4-(1-(2-hydroxyethyl)-3-phenyl-1H-pyrazol-4-yl)-7-methoxyquinazolin-6-yl)bicyclo[1.1.1]pentane-1-carboxamide]",2.3 nM,1.8 nM,3.2 nM
"COc1cc2ncnc(-c3cn(CC(F)F)nc3-c3ccccc3)c2nc1OC [Example 20, 4-(1-(2,2-difluoroethyl)-3-phenyl-1H-pyrazol-4-yl)-6,7-dimethoxypyrido[3,2-d]pyrimidine]",0.9 nM,0.5 nM,1.2 nM
"COc1cc2ncnc(-c3cn(C)nc3-c3ccccc3)c2cc1NC(=O)c1ncccn1 [Example 192, N-(7-methoxy-4-(1-methyl-3-phenyl-1H-pyrazol-4-yl)quinazolin-6-yl)pyrimidine-2-carboxamide]",1.6 nM,0.7 nM,1.1 nM
"Cc1ncsc1C(=O)Nc1cc2c(-c3cn(C)nc3-c3ccccc3)ncnc2cc1OCCN(C)C [Example 303, N-(7-(2-(dimethylamino)ethoxy)-4-(1-methyl-3-phenyl-1H-pyrazol-4-yl)quinazolin-6-yl)-4-methylthiazole-5-carboxamide]",8.8 nM,2.9 nM,11 nM
"CN(C)CCOc1cc2ncnc(-c3cn(C)nc3-c3ccccc3)c2cc1NC(=O)C12CC(C1)C2 [Example 299, N-(7-(2-(dimethylamino)ethoxy)-4-(1-methyl-3-phenyl-1H-pyrazol-4-yl)quinazolin-6-yl)bicyclo[1.1.1]pentane-1-carboxamide]",7.1 nM,5.4 nM,15.3 nM
"COc1cc2ncnc(-c3cn(C)nc3-c3ccccc3)c2nc1O[C@H](C)c1cnnn1C [Example 41, (R)-7-methoxy-6-(1-(1-methyl-1H-1,2,3-triazol-5-yl)ethoxy)-4-(1-methyl-3-phenyl-1H-pyrazol-4-yl)pyrido[3,2-d]pyrimidine]",9.2 nM,4.1 nM,8.3 nM
